The values that follow are results of earlier work, collected in paper PMC5812370 (Biochemistry, 2017).

Data set [1] deals with uPAR (Homo sapiens, UniProt Q03405).
Data set [2] deals with uPAR·uPA protein–protein interaction (Homo sapiens, UniProt Q03405).
Chain of uPAR·uPA protein–protein interaction (Q03405 23-305 limits assumed): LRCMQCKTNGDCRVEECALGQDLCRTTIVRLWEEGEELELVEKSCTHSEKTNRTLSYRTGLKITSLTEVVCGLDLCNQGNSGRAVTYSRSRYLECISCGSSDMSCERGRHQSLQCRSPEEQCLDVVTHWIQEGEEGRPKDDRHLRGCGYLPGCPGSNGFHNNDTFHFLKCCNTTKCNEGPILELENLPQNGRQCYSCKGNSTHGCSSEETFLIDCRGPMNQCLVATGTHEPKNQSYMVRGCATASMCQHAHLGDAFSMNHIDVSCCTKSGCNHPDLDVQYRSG

Chain of uPAR (Q03405 23-305 limits assumed): as above

Turning to `O=C(O)c1cccc(Nc2cc(N3CCCCCC3)c3noc4c3c2C(=O)c2ccccc2-4)c1` [Compound 2], in data set [1], the “binding affinity to uPAR (in words)” value is given as “submicromolar”. For the same compound, in data set [2], the “IC50 for inhibition of the uPAR·uPA complex (in words)” value is on record as “single-digit micromolar”.
